Source: DBAASP
≈ marks a conversion by molar mass, not a printed value. Each block holds one compound with its values, some of them ahead of it.

Tests used:
Test in all cases: ≥ marks a high value that may be exact or a test limit, other limits are often not marked, values filed in µg/mL are converted to µM
[1] = test system: Candida albicans ATCC 2048
[2] = test system: Candida glabrata ATCC 90525
Candida krusei ATCC 6258 = test system: Candida krusei ATCC 6258
[3] = test system: Candida parapsilosis ATCC 20224
[4] = test system: Candida tropicalis ATCC 20240
[5] = test system: Bordetella bronchiseptica CUN 11844-99
[6] = test system: Escherichia coli ATCC 25922
[7] = test system: Pseudomonas aeruginosa CUN 4158-02
[8] = test system: Staphylococcus aureus ATCC 25923
[9] = test system: Bacillus subtilis subsp. subtilis CIP 52.65
[10] = test system: Enterococcus faecalis ATCC 29212
[11] = test system: Enterococcus faecium BM4147
[12] = test system: Escherichia coli ATCC 35218
[13] = test system: Escherichia coli ATCC 8739
Escherichia coli K-12 = test system: Escherichia coli K-12
Escherichia coli ML-35p = test system: Escherichia coli ML-35p
[14] = test system: Kocuria rhizophila ATCC 9341
[15] = test system: Pseudomonas aeruginosa ATCC 27853
[16] = test system: Staphylococcus aureus ATCC 29213
[17] = test system: Staphylococcus aureus ATCC 6538
[18] = test system: Staphylococcus aureus DAR 5829
[19] = test system: Staphylococcus aureus ST1065
[20] = test system: Staphylococcus epidermidis BM3302
[21] = test system: Aeromonas salmonicida CIP 103209T
[22] = test system: Bacillus megaterium CIP 51.17
[23] = test system: Enterococcus faecalis CIP 76.117
[24] = test system: Escherichia coli CIP 54.8T
[25] = test system: Listeria monocytogenes CIP 110871
[26] = test system: Salmonella typhimurium CIP 103446
[27] = test system: Staphylococcus aureus CIP 53.156
[28] = test system: Vibrio alginolyticus CIP 109819
Pseudomonas aeruginosa = test system: Pseudomonas aeruginosa
[29] = test system: Staphylococcus pseudintermedius
Bacillus megaterium Bm11 = test system: Bacillus megaterium Bm11
Escherichia coli D21 = test system: Escherichia coli D21
Escherichia coli ML-35 = test system: Escherichia coli ML-35
[30] = test system: Salmonella enterica subsp. enterica serovar Typhimurium ATCC 14028
[31] = test system: Serratia marcescens ATCC 8100
[32] = test system: Staphylococcus epidermidis ATCC 12228
[33] = test system: Escherichia coli NCTC 10418
[34] = test system: Staphylococcus aureus NCTC 12981

SMILES: C[C@H](NC(=O)CN)C(=O)N[C@@H](CCCCN)C(=O)N[C@@H](CCC(=O)O)C(=O)N[C@@H](CCCN=C(N)N)C(=O)N[C@@H](C)C(=O)N[C@@H](Cc1cnc[nH]1)C(=O)N[C@@H](CCC(N)=O)C(=O)O [GAKERAHQ]
MIC [1]: ≥ 240 µM | MIC [2]: ≥ 300 µM | MIC (Candida krusei ATCC 6258): ≥ 240 µM | MIC [3]: ≥ 300 µM | MIC [4]: ≥ 290 µM

SMILES: CC[C@H](C)[C@H](NC(=O)CN)C(=O)NCC(=O)N[C@@H](CCCCN)C(=O)N[C@@H](Cc1ccccc1)C(=O)N[C@@H](CO)C(=O)N[C@@H](CCCCN)C(=O)N[C@@H](CCCCN)C(=O)NCC(=O)N[C@@H](C)C(=O)N[C@@H](C)C(=O)N[C@@H](C)C(=O)N[C@@H](CCCN=C(N)N)C(=O)N[C@@H](CCCN=C(N)N)C(=O)N[C@@H](CCCN=C(N)N)C(=O)N[C@@H](CCCCN)C(=O)N[C@H](C(=O)N[C@@H](CO)C(=O)N[C@@H](CC(C)C)C(=O)N[C@@H](CCCCN)C(=O)N[C@@H](C)C(=O)N[C@@H](CC(C)C)C(N)=O)C(C)C [GIGKFSKKGAAARRRKVSLKAL]
MIC [5]: ≥ 219 µM | MIC [6]: > 219 µM | MIC [7]: ≥ 219 µM | MIC [8]: > 219 µM

SMILES: CC[C@H](C)[C@H](NC(=O)CNC(=O)[C@H](Cc1c[nH]c2ccccc12)NC(=O)[C@@H](NC(=O)CN)C(C)C)C(=O)N[C@@H](C)C(=O)N[C@@H](CCCCN)C(=O)N[C@H](C(=O)N[C@@H](C)C(=O)NCC(=O)N[C@@H](CCCCN)C(=O)N[C@H](C(=O)N[C@@H](CC(C)C)C(=O)NCC(=O)N[C@@H](CC(N)=O)C(=O)N[C@H](C(=O)N[C@@H](CC(C)C)C(=O)N1CCC[C@H]1C(=O)N[C@@H](Cc1cnc[nH]1)C(=O)N[C@H](C(=O)N[C@@H](Cc1ccccc1)C(=O)N[C@@H](CO)C(=O)N[C@@H](CO)C(=O)N[C@@H](CC(N)=O)C(=O)N[C@@H](CCC(N)=O)C(=O)N[C@@H](CO)C(N)=O)C(C)C)[C@@H](C)CC)C(C)C)[C@@H](C)CC [GVWGIAKIAGKVLGNILPHVFSSNQS]
MIC [9]: 6.25 µM (≈ 16.8 µg/mL) | MIC [10]: 50 µM (≈ 135 µg/mL) | MIC [11]: 25 µM (≈ 67.3 µg/mL) | MIC [12]: ≥ 100 µM | MIC [13]: 25 µM (≈ 67.3 µg/mL) | MIC (Escherichia coli K-12): ≥ 100 µM | MIC (Escherichia coli ML-35p): ≥ 100 µM | MIC [14]: 3.12 µM (≈ 8.4 µg/mL) | MIC [15]: > 100 µM | MIC [16]: 3.12 µM (≈ 8.4 µg/mL) | MIC [17]: 6.25 µM (≈ 16.8 µg/mL) | MIC [18]: 25 µM (≈ 67.3 µg/mL) | MIC [19]: 12.5 µM (≈ 33.7 µg/mL) | MIC [20]: 12.5 µM (≈ 33.7 µg/mL)

SMILES: CC[C@H](C)[C@H](NC(=O)[C@@H](N)CCCCN)C(=O)N[C@@H](CCCN=C(N)N)C(=O)N[C@@H](Cc1ccccc1)C(=O)N[C@H](C(=O)N[C@@H](CCCN=C(N)N)C(=O)N[C@H](C(=O)N[C@H](C(=O)N[C@@H](CO)C(=O)N[C@@H](CCCN=C(N)N)C(=O)N[C@@H](CC(C)C)C(=O)N[C@@H](CC(C)C)C(=O)N[C@@H](CCCCN)C(=O)N[C@@H](C)C(=O)N[C@@H](C)C(=O)N[C@@H](CC(C)C)C(=O)N[C@@H](C)C(=O)N[C@@H](CO)C(=O)N[C@H](C(=O)O)[C@@H](C)O)C(C)C)[C@@H](C)O)[C@@H](C)O [KIRFTRTVSRLLKAALAST]
MIC [21]: 15.8 µM (≈ 33.7 µg/mL) | MIC [22]: 3.16 µM (≈ 6.74 µg/mL) | MIC [23]: ≥ 122 µM | MIC [24]: 3.16 µM (≈ 6.74 µg/mL) | MIC [25]: ≥ 50 µM | MIC [26]: ≥ 86.6 µM | MIC [27]: 15.8 µM (≈ 33.7 µg/mL) | MIC [28]: ≥ 35.4 µM

Continued, values first:

MIC [15]: 5.72 µM (≈ 16.2 µg/mL) | MIC (Pseudomonas aeruginosa): 4.04 µM (≈ 11.5 µg/mL) | MIC [16]: 11.4 µM (≈ 32.5 µg/mL) | MIC [29]: 16.2 µM (≈ 45.9 µg/mL)
SMILES: CC[C@H](C)[C@H](NC(=O)[C@H](CC(C)C)NC(=O)[C@@H]1CCCN1C(=O)[C@H](CCCCN)NC(=O)[C@H](CC(C)C)NC(=O)[C@H](CCCN=C(N)N)NC(=O)[C@H](CCCN=C(N)N)NC(=O)[C@H](CC(C)C)NC(C)=O)C(=O)N[C@@H](CCCN=C(N)N)C(=O)N1CCC[C@H]1C(=O)N[C@@H](Cc1c[nH]c2ccccc12)C(=O)N[C@@H](CC(C)C)C(=O)N[C@@H](CCCN=C(N)N)C(=O)N1CCC[C@H]1C(=O)N[C@@H](CC(C)C)C(=O)N[C@@H](CCCN=C(N)N)C(=O)N[C@@H](CCCN=C(N)N)C(=O)N[C@@H](Cc1c[nH]c2ccccc12)C(=O)N[C@@H](Cc1c[nH]c2ccccc12)C(=O)N[C@@H](Cc1c[nH]c2ccccc12)C(N)=O [LRRLKPLIRPWLRPLRRWWW]

MIC (Bacillus megaterium Bm11): ≥ 32 µM | MIC (Escherichia coli D21): 16 µM (≈ 30.6 µg/mL) | MIC (Escherichia coli ML-35): ≥ 32 µM | MIC [30]: 32 µM (≈ 61.2 µg/mL) | MIC [31]: ≥ 32 µM | MIC [32]: > 64 µM
SMILES: CC(C)C[C@H](NC(=O)[C@H](Cc1ccc(O)cc1)NC(=O)[C@@H]1CCCN1C(=O)[C@@H]1CCCN1C(=O)[C@H](CCCN=C(N)N)NC(=O)[C@@H]1CCCN1C(=O)[C@H](CCCN=C(N)N)NC(=O)[C@H](CCCN=C(N)N)NC(=O)[C@@H](N)CCCN=C(N)N)C(=O)N[C@@H](CCCN=C(N)N)C(=O)N1CCC[C@H]1C(=O)N[C@@H](CCCN=C(N)N)C(=O)N1CCC[C@H]1C(=O)N1CCC[C@H]1C(=O)N1CCC[C@H]1C(=O)O [RRRPRPPYLRPRPPP]

MIC [6]: > 366 µM | MIC [33]: ≥ 234 µM | MIC [8]: 183 µM (≈ 99.8 µg/mL) | MIC [34]: ≥ 234 µM
SMILES: NC(=O)[C@H](Cc1c[nH]c2ccccc12)NC(=O)[C@H](CCCN=C(N)N)NC(=O)[C@@H](N)Cc1c[nH]c2ccccc12 [WRW]
